Measurements as given in ChEMBL document CHEMBL5550190 (J Med Chem, 2024).

Columns and labels:
[1] = test system: MDA-MB-231; assay: Antitumor activity against human MDA-MB-231 cells incubated for 48 hrs in presence of 1.5% BSA by Celltiter Blue reagent based 3D microtiter assay; format: functional
[2] = test system: MDA-MB-231; assay: Antitumor activity against human MDA-MB-231 cells incubated for 48 hrs by Celltiter Blue reagent based 2D microtiter assay; format: functional
[3] = test system: A549; assay: Antitumor activity against human A549 cells incubated for 48 hrs; format: functional
[4] = test system: MDA-MB-231; assay: Antitumor activity against human MDA-MB-231 cells incubated for 48 hrs in presence of 1.5% BSA by Celltiter Blue reagent based 2D microtiter assay; format: functional
[5] = test system: MDA-MB-231; assay: Antitumor activity against human MDA-MB-231 cells incubated for 48 hrs by Celltiter Blue reagent based 3D microtiter assay; format: functional
[6] = test system: Hs-578T; assay: Antitumor activity against human Hs-578T cells incubated for 48 hrs; format: functional
[7] = test system: HCT-116; assay: Antitumor activity against human HCT-116 cells incubated for 48 hrs; format: functional
[8] = target: CYP2C9 (Homo sapiens, UniProt P11712); assay: Drug metabolism in human liver microsomes assessed as CYP2C9-mediated metabolism by measuring increase in half life in presence of sulfaphenazole (reference value: 10.8 mins); format: ADME, Microsome; details: with sulfaphenazole
Chain of CYP2C9 (P11712 whole entry): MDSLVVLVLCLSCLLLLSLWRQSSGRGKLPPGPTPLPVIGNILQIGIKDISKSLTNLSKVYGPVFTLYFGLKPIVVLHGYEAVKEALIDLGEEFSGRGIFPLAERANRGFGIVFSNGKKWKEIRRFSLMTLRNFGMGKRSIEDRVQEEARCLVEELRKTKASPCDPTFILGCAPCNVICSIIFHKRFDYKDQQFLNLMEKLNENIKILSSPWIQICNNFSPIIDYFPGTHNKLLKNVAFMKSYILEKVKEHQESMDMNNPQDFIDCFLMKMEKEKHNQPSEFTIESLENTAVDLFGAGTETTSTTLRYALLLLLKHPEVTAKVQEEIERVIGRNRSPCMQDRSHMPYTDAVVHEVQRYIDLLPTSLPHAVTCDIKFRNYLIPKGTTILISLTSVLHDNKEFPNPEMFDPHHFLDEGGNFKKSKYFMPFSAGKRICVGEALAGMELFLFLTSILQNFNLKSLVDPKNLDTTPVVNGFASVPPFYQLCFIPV

[9] = Metabolic stability in mouse liver microsomes assessed as half life at 100 uM measured upto 60 mins by LC-MS/MS analysis; format: ADME, Microsome; details: 1 h
[10] = Drug metabolism in mouse liver microsomes assessed as M3 metabolite formation at 10 uM after 30 mins in presence of NADPH by LC-MS/MS analysis; format: ADME, Microsome; details: 0.5 h
[11] = target: T1, CYP1A2 (Homo sapiens, UniProt P05177); assay: Drug metabolism in human liver microsomes assessed as CYP1A2-mediated metabolism by measuring increase in half life in presence of furafylline (reference value: 10.8 mins); format: ADME, Microsome; details: with furafylline
T1 sequence (P05177 whole entry): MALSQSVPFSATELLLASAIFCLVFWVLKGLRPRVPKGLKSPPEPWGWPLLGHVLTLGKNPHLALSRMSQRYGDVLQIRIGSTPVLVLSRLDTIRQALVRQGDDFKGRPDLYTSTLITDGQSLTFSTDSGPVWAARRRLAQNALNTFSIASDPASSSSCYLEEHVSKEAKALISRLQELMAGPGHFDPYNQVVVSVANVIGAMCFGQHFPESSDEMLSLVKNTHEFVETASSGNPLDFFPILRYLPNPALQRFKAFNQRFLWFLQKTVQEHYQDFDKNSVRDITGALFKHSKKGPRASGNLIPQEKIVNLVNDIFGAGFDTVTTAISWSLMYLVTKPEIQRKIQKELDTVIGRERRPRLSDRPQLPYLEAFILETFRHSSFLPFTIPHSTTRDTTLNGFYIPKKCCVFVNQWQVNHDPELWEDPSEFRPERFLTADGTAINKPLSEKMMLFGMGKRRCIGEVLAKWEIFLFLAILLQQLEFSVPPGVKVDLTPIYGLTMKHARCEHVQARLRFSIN

[12] = Metabolic stability in human liver microsomes assessed as half life at 100 uM measured upto 60 mins by LC-MS/MS analysis; format: ADME, Microsome; details: 1 h
[13] = Protein binding in human plasma at 5 uM incubated for 5 hrs by LC-MS/MS analysis; format: ADME, cell-free; details: read-out: PPB
[14] = target: CYP3A4 (Homo sapiens, UniProt P08684); assay: Drug metabolism in human liver microsomes assessed as CYP3A4-mediated metabolism by measuring increase in half life in presence of ketoconazole (reference value: 10.8 mins); format: ADME, Microsome; details: with ketoconazole
Chain of CYP3A4 (P08684 whole entry): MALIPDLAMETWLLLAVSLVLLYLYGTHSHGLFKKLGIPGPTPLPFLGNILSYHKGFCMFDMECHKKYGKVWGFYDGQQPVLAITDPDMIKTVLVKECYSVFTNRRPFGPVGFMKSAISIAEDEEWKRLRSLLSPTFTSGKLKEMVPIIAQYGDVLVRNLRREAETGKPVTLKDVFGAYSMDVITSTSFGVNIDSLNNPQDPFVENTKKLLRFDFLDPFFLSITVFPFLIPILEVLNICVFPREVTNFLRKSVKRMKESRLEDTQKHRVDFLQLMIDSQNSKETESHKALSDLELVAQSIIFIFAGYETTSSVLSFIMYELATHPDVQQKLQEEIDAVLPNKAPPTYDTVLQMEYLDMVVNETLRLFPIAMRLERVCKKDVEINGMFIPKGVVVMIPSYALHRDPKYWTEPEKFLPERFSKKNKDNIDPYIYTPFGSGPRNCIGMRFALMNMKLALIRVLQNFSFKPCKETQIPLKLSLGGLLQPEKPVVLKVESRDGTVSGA

[15] = Protein binding in mouse plasma at 5 uM incubated for 5 hrs by LC-MS/MS analysis; format: ADME, cell-free; details: read-out: PPB
[16] = target: CYP2C19 (Homo sapiens, UniProt P33261); assay: Drug metabolism in human liver microsomes assessed as CYP2C19-mediated metabolism by measuring increase in half life in presence of (+)-N-3-benzylnirvanol (reference value: 10.8 mins); format: ADME, Microsome; details: with (+)-N-3-benzylnirvanol
Chain of CYP2C19 (P33261 whole entry): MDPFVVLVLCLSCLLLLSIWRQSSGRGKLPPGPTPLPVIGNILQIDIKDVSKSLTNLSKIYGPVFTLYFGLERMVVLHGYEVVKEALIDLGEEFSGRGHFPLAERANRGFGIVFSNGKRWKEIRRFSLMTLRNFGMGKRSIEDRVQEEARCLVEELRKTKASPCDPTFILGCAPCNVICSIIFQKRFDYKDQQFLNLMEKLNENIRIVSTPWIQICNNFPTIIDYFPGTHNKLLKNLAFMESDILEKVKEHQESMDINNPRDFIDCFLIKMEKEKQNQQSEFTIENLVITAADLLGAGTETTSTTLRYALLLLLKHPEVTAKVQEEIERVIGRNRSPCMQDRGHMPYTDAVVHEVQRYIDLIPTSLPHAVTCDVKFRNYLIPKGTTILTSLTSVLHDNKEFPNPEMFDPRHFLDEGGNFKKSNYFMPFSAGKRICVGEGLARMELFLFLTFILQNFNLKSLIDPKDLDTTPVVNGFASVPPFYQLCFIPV

[17] = Drug metabolism in mouse liver microsomes assessed as M2 metabolite formation at 10 uM after 30 mins in presence of NADPH by LC-MS/MS analysis; format: ADME, Microsome; details: 0.5 h
[18] = Metabolic stability in human liver microsomes assessed as half life at 100 uM preincubated for 5 mins followed by NADPH addition and measured upto 60 mins by LC-MS/MS analysis; format: ADME, Microsome; details: time < 65 min
[19] = Metabolic stability in mouse liver microsomes assessed as half life at 100 uM preincubated for 5 mins followed by NADPH addition and measured upto 60 mins by LC-MS/MS analysis; format: ADME, Microsome; details: time < 65 min
[20] = target: CYP2D6 (Homo sapiens, UniProt P10635); assay: Drug metabolism in human liver microsomes assessed as CYP2D6-mediated metabolism by measuring increase in half life in presence of quinidine (reference value: 10.8 mins); format: ADME, Microsome; details: with quinidine
Chain of CYP2D6 (P10635 whole entry): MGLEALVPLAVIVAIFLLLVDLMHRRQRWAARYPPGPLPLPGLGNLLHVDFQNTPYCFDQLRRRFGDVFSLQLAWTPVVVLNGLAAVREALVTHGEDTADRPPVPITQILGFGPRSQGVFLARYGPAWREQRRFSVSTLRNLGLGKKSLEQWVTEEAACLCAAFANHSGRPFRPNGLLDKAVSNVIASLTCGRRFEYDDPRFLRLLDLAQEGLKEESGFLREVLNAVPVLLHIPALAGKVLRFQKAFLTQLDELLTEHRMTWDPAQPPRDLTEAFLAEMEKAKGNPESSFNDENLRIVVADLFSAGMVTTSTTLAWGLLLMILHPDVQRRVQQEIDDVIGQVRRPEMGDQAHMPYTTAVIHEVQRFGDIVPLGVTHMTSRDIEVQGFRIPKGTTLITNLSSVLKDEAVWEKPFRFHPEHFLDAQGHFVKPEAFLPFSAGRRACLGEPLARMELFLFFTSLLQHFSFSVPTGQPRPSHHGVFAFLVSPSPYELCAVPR

[21] = Drug metabolism in mouse liver microsomes assessed as M1 metabolite formation at 10 uM after 30 mins in presence of NADPH by LC-MS/MS analysis; format: ADME, Microsome; details: 0.5 h

Row | SMILES | GI50 [3] [nM] | GI50 [7] [nM] | GI50 [6] [nM] | other results
1 | [2H]C([2H])([2H])Oc1cc(C(=O)Nc2cc3c(cc2Oc2cc(C)cc(C)c2)C(=O)N(C)[C@@H](CC(=O)N(C([2H])([2H])[2H])C([2H])([2H])[2H])C(=O)N3)c(Br)c(OC([2H])([2H])[2H])c1OC([2H])([2H])[2H] | < 5 | < 5 | < 5 | –
2 | CCN(CC)C(=O)C[C@H]1C(=O)Nc2cc(NC(=O)c3cc(OC)c(OC)c(OC)c3Br)c(Oc3cc(C)cc(C)c3)cc2C(=O)N1C | < 5 | < 5 | 5.4 | half-life [8]: 16.6 min; Stability [9]: Stable; Drug metabolism [10]: Metabolite_Detected; half-life [11]: 11.4 min; GI50 [1]: 53.2 nM; Stability [12]: Stable; GI50 [2]: < 1 nM; GI50 [4]: 3.39 nM; fraction unbound at 5 h, 5 µM [13]: < 0.02; GI50 [5]: 109 nM; half-life [14]: 866 min; fraction unbound at 5 h, 5 µM [15]: < 0.02; half-life [16]: 11.7 min; Drug metabolism [17]: Metabolite_Detected; half-life at 100 µM [18]: 11 min; half-life at 100 µM [19]: 13.8 min; half-life [20]: 11.6 min; Drug metabolism [21]: Metabolite_Detected
3 | [2H]c1c(C)c([2H])c(Oc2cc3c(cc2NC(=O)c2cc(OC)c(OC)c(OC)c2Cl)NC(=O)[C@H](CC(=O)N(CC)CC)NC3=O)c([2H])c1C | 207 | 124 | 292 | –
4 | [2H]C([2H])([2H])N(C(=O)C[C@H]1C(=O)Nc2cc(NC(=O)c3cc(OC)c(OC)c(OC)c3Br)c(Oc3cc(C)cc(C)c3)cc2C(=O)N1C)C([2H])([2H])[2H] | < 5 | < 5 | < 5 | –
5 | [2H]C([2H])([2H])Oc1cc(C(=O)Nc2cc3c(cc2Oc2cc(C)cc(C)c2)C(=O)N(C)[C@@H](CC(=O)N(C([2H])([2H])C([2H])([2H])[2H])C([2H])([2H])C([2H])([2H])[2H])C(=O)N3)c(Br)c(OC([2H])([2H])[2H])c1OC([2H])([2H])[2H] | < 5 | < 5 | < 5 | –
6 | [2H]C([2H])([2H])N1C(=O)c2cc(Oc3cc(C)cc(C)c3)c(NC(=O)c3cc(OC)c(OC)c(OC)c3Br)cc2NC(=O)[C@@H]1CC(=O)N(CC)CC | < 5 | < 5 | 20.9 | –
7 | [2H]C([2H])([2H])C([2H])([2H])N(C(=O)C[C@@H]1NC(=O)c2cc(Oc3cc(C)cc(C)c3)c(NC(=O)c3cc(OC)c(OC)c(OC)c3Br)cc2NC1=O)C([2H])([2H])C([2H])([2H])[2H] | < 5 | < 5 | 16.1 | –
8 | [2H]C([2H])([2H])N(C(=O)C[C@@H]1NC(=O)c2cc(Oc3cc(C)cc(C)c3)c(NC(=O)c3cc(OC)c(OC)c(OC)c3Br)cc2NC1=O)C([2H])([2H])[2H] | < 5 | 7.1 | < 5 | GI50 [1]: 22.5 nM; GI50 [2]: 9.33 nM; GI50 [4]: 9.43 nM; GI50 [5]: 9.96 nM
9 | COc1cc(C(=O)Nc2cc3c(cc2Oc2cc(C)cc(C)c2)C(=O)N[C@@H](CC(=O)N(C)C)C(=O)N3)c(Br)c(OC)c1OC | < 5 | < 5 | < 5 | –
10 | COc1cc(C(=O)Nc2cc3c(cc2Oc2cc(C)cc(C)c2)C(=O)N(C)[C@@H](CC(=O)N(C)C)C(=O)N3)c(Br)c(OC)c1OC | < 5 | < 5 | < 5 | –
11 | [2H]C([2H])([2H])Oc1cc(C(=O)Nc2cc3c(cc2Oc2cc(C)cc(C)c2)C(=O)N[C@@H](CC(=O)N(C([2H])([2H])C([2H])([2H])[2H])C([2H])([2H])C([2H])([2H])[2H])C(=O)N3)c(Cl)c(OC([2H])([2H])[2H])c1OC([2H])([2H])[2H] | 11.7 | < 5 | 51.5 | –
12 | [2H]C([2H])([2H])C([2H])([2H])N(C(=O)C[C@H]1C(=O)Nc2cc(NC(=O)c3cc(OC)c(OC)c(OC)c3Br)c(Oc3cc(C)cc(C)c3)cc2C(=O)N1C)C([2H])([2H])C([2H])([2H])[2H] | < 5 | 15.6 | < 5 | –
13 | [2H]c1c(Oc2cc3c(cc2NC(=O)c2cc(OC)c(OC)c(OC)c2Cl)NC(=O)[C@H](CC(=O)N(CC)CC)NC3=O)c([2H])c(C([2H])([2H])[2H])c([2H])c1C([2H])([2H])[2H] | 19.1 | < 5 | 27.7 | –
14 | [2H]C([2H])([2H])c1cc(Oc2cc3c(cc2NC(=O)c2cc(OC)c(OC)c(OC)c2Cl)NC(=O)[C@H](CC(=O)N(CC)CC)NC3=O)cc(C([2H])([2H])[2H])c1 | 11.6 | < 5 | 30.1 | –

Second part, led by results:

Row | GI50 [3] [nM] | GI50 [7] [nM] | SMILES | GI50 [6] [nM] | other results
15 | < 5 | < 5 | [2H]C([2H])([2H])Oc1cc(C(=O)Nc2cc3c(cc2Oc2cc(C)cc(C)c2)C(=O)N[C@@H](CC(=O)N(C([2H])([2H])C([2H])([2H])[2H])C([2H])([2H])C([2H])([2H])[2H])C(=O)N3)c(Br)c(OC([2H])([2H])[2H])c1OC([2H])([2H])[2H] | < 5 | GI50 [1]: 14 nM; GI50 [2]: < 1 nM; GI50 [4]: < 1 nM; GI50 [5]: 64.1 nM
16 | < 5 | < 5 | [2H]C([2H])([2H])Oc1cc(C(=O)Nc2cc3c(cc2Oc2cc(C)cc(C)c2)C(=O)N[C@@H](CC(=O)N(CC)CC)C(=O)N3)c(Br)c(OC([2H])([2H])[2H])c1OC([2H])([2H])[2H] | 8.1 | –
17 | 6.1 | < 5 | [2H]C([2H])([2H])Oc1cc(C(=O)Nc2cc3c(cc2Oc2cc(C)cc(C)c2)C(=O)N[C@@H](CC(=O)N(C([2H])([2H])[2H])C([2H])([2H])[2H])C(=O)N3)c(Br)c(OC([2H])([2H])[2H])c1OC([2H])([2H])[2H] | < 5 | –
18 | 4.9 | 7.8 | [2H]C([2H])([2H])Oc1cc(C(=O)Nc2cc3c(cc2Oc2cc(C)cc(C)c2)C(=O)N[C@@H](CC(=O)N(C)OC)C(=O)N3)c(Br)c(OC([2H])([2H])[2H])c1OC([2H])([2H])[2H] | < 5 | GI50 [1]: 90.3 nM; GI50 [2]: < 1 nM; GI50 [4]: < 1 nM; GI50 [5]: 251 nM
19 | < 5 | 15.6 | [2H]C([2H])([2H])Oc1cc(C(=O)Nc2cc3c(cc2Oc2cc(C)cc(C)c2)C(=O)N[C@@H](CC(=O)N(C)O)C(=O)N3)c(Br)c(OC([2H])([2H])[2H])c1OC([2H])([2H])[2H] | 8.6 | –
20 | 13.1 | < 5 | [2H]C([2H])([2H])Oc1c(OC)cc(C(=O)Nc2cc3c(cc2Oc2cc(C)cc(C)c2)C(=O)N[C@@H](CC(=O)N(CC)CC)C(=O)N3)c(Cl)c1OC | 31.9 | –
21 | 14.9 | 5.4 | [2H]C([2H])([2H])Oc1cc(C(=O)Nc2cc3c(cc2Oc2cc(C)cc(C)c2)C(=O)N[C@@H](CC(=O)N(CC)CC)C(=O)N3)c(Cl)c(OC([2H])([2H])[2H])c1OC([2H])([2H])[2H] | 39.7 | –
22 | < 5 | < 5 | [2H]C([2H])([2H])Oc1cc(C(=O)Nc2cc3c(cc2Oc2cc(C)cc(C)c2)C(=O)N(C)[C@@H](CC(=O)N(C)C)C(=O)N3)c(Br)c(OC([2H])([2H])[2H])c1OC([2H])([2H])[2H] | < 5 | –
23 | < 5 | < 5 | [2H]C([2H])([2H])Oc1cc(C(=O)Nc2cc3c(cc2Oc2cc(C)cc(C)c2)C(=O)N[C@@H](CC(=O)N(C)C)C(=O)N3)c(Br)c(OC([2H])([2H])[2H])c1OC([2H])([2H])[2H] | < 5 | GI50 [1]: 0.75 nM; GI50 [2]: 0.23 nM; GI50 [4]: 0.79 nM; GI50 [5]: 25.3 nM
